Assays:
Assay in all cases: Post-emergence test, weed control effect
Type in all cases: in vivo
Conditions in all cases: after 3 weeks
Amaranthus retroflexus = tested on: Amaranthus retroflexus
How it was run: (§1)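 Scores use a 0 (no effect) to 10 (dead) scale of fresh-weight inhibition, assessed 3 weeks after spraying. Treatment was at the 2-3 leaf stage, 2-3 weeks post-sowing, using acetone/Tween-80/water solutions with 80% vegetable oil methyl ester synergist at 1500 g/ha.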

Veronica polita = tested on: Veronica polita
How it was run: as §1

Chenopodiaceae = tested on: Chenopodiaceae
How it was run: as §1

Rorippa indica = tested on: Rorippa indica
How it was run: as §1

Oc1cc(C(F)(F)F)nnc1-c1cncc(Cl)c1F [Compound 1008]
10: weed control effect (activity level), Amaranthus retroflexus (Amaranthus retroflexus; Dose 3000 g/ha) | weed control effect (activity level), Veronica polita (Veronica polita; Dose 3000 g/ha) | weed control effect (activity level), Chenopodiaceae (Chenopodiaceae; Dose 3000 g/ha) | weed control effect (activity level), Rorippa indica (Rorippa indica; Dose 3000 g/ha)

Oc1cc(C(F)(F)F)nnc1-c1ccc(Cl)nc1Cl [Compound 991]
10: weed control effect (activity level), Amaranthus retroflexus (Amaranthus retroflexus; Dose 3000 g/ha) | weed control effect (activity level), Veronica polita (Veronica polita; Dose 3000 g/ha) | weed control effect (activity level), Chenopodiaceae (Chenopodiaceae; Dose 3000 g/ha) | weed control effect (activity level), Rorippa indica (Rorippa indica; Dose 3000 g/ha)

Oc1cc(C(F)(F)F)nnc1-c1ccc(I)nc1 [Compound 970]
10: weed control effect (activity level), Amaranthus retroflexus (Amaranthus retroflexus; Dose 3000 g/ha) | weed control effect (activity level), Veronica polita (Veronica polita; Dose 3000 g/ha) | weed control effect (activity level), Chenopodiaceae (Chenopodiaceae; Dose 3000 g/ha) | weed control effect (activity level), Rorippa indica (Rorippa indica; Dose 3000 g/ha)

O=C(Oc1cc(C(F)(F)F)nnc1-c1ccc(C(F)(F)F)cc1)c1cccc2c1OCO2 [Compound 1-118]
10: weed control effect, Amaranthus retroflexus (activity level) (Amaranthus retroflexus; Dose 3000 g/ha) | weed control effect, Veronica polita (activity level) (Veronica polita; Dose 3000 g/ha) | weed control effect, Chenopodiaceae (activity level) (Chenopodiaceae; Dose 3000 g/ha) | weed control effect, Rorippa indica (activity level) (Rorippa indica; Dose 3000 g/ha)

Cc1cc(-c2nnc(C(F)(F)F)cc2O)n(C(C)C)n1 [Compound 829]
10: weed control effect (activity level), Amaranthus retroflexus (Amaranthus retroflexus; Dose 3000 g/ha) | weed control effect (activity level), Veronica polita (Veronica polita; Dose 3000 g/ha) | weed control effect (activity level), Chenopodiaceae (Chenopodiaceae; Dose 3000 g/ha) | weed control effect (activity level), Rorippa indica (Rorippa indica; Dose 3000 g/ha)

CC(C)n1nc(F)cc1-c1nnc(C(F)(F)F)cc1O [Compound 830]
10: weed control effect (activity level), Amaranthus retroflexus (Amaranthus retroflexus; Dose 3000 g/ha) | weed control effect (activity level), Veronica polita (Veronica polita; Dose 3000 g/ha) | weed control effect (activity level), Chenopodiaceae (Chenopodiaceae; Dose 3000 g/ha) | weed control effect (activity level), Rorippa indica (Rorippa indica; Dose 3000 g/ha)

O=C(COc1cc(C(F)(F)F)nnc1-c1ccc(F)cc1)c1ccccc1 [Compound 1-212]
10: weed control effect, Amaranthus retroflexus (activity level) (Amaranthus retroflexus; Dose 3000 g/ha) | weed control effect, Veronica polita (activity level) (Veronica polita; Dose 3000 g/ha) | weed control effect, Chenopodiaceae (activity level) (Chenopodiaceae; Dose 3000 g/ha) | weed control effect, Rorippa indica (activity level) (Rorippa indica; Dose 3000 g/ha)

Oc1cc(C(F)(F)F)nnc1-c1cc2ccccc2cn1 [Compound 743]
10: weed control effect (activity level), Amaranthus retroflexus (Amaranthus retroflexus; Dose 3000 g/ha) | weed control effect (activity level), Veronica polita (Veronica polita; Dose 3000 g/ha) | weed control effect (activity level), Chenopodiaceae (Chenopodiaceae; Dose 3000 g/ha) | weed control effect (activity level), Rorippa indica (Rorippa indica; Dose 3000 g/ha)

CC(C)OC(=O)OC(C)Oc1cc(C(F)(F)F)nnc1-c1ccccc1 (stereo not drawn) [Compound 1-240]
10: weed control effect, Amaranthus retroflexus (activity level) (Amaranthus retroflexus; Dose 3000 g/ha) | weed control effect, Veronica polita (activity level) (Veronica polita; Dose 3000 g/ha) | weed control effect, Chenopodiaceae (activity level) (Chenopodiaceae; Dose 3000 g/ha) | weed control effect, Rorippa indica (activity level) (Rorippa indica; Dose 3000 g/ha)

O=C(Oc1cc(C(F)(F)F)nnc1-c1ccc(F)c(F)c1)c1cnccn1 [Compound 1-112]
10: weed control effect, Amaranthus retroflexus (activity level) (Amaranthus retroflexus; Dose 3000 g/ha) | weed control effect, Veronica polita (activity level) (Veronica polita; Dose 3000 g/ha) | weed control effect, Chenopodiaceae (activity level) (Chenopodiaceae; Dose 3000 g/ha) | weed control effect, Rorippa indica (activity level) (Rorippa indica; Dose 3000 g/ha)

Oc1cc(C(F)(F)F)nnc1-c1ccccn1 [Compound 263]
10: weed control effect (activity level), Amaranthus retroflexus (Amaranthus retroflexus; dose 2000 g/ha) | weed control effect (activity level), Veronica polita (Veronica polita; dose 2000 g/ha) | weed control effect (activity level), Chenopodiaceae (Chenopodiaceae; dose 2000 g/ha) | weed control effect (activity level), Rorippa indica (Rorippa indica; dose 2000 g/ha)

Oc1cc(C(F)(F)F)nnc1-c1ccncc1Cl [Compound 279]
10: weed control effect (activity level), Amaranthus retroflexus (Amaranthus retroflexus; dose 2000 g/ha) | weed control effect (activity level), Veronica polita (Veronica polita; dose 2000 g/ha) | weed control effect (activity level), Chenopodiaceae (Chenopodiaceae; dose 2000 g/ha) | weed control effect (activity level), Rorippa indica (Rorippa indica; dose 2000 g/ha)

CN(C)c1ccc(C(=O)Oc2cc(C(F)(F)F)nnc2-c2cccc(F)c2)cc1 [Compound 1-90]
10: weed control effect, Amaranthus retroflexus (activity level) (Amaranthus retroflexus; Dose 3000 g/ha) | weed control effect, Veronica polita (activity level) (Veronica polita; Dose 3000 g/ha) | weed control effect, Chenopodiaceae (activity level) (Chenopodiaceae; Dose 3000 g/ha) | weed control effect, Rorippa indica (activity level) (Rorippa indica; Dose 3000 g/ha)

Oc1cc(C(F)(F)F)nnc1C1C=C2C=CC=CC2N1 (stereo not drawn) [Compound 877]
10: weed control effect (activity level), Amaranthus retroflexus (Amaranthus retroflexus; Dose 3000 g/ha) | weed control effect (activity level), Veronica polita (Veronica polita; Dose 3000 g/ha) | weed control effect (activity level), Chenopodiaceae (Chenopodiaceae; Dose 3000 g/ha) | weed control effect (activity level), Rorippa indica (Rorippa indica; Dose 3000 g/ha)

O=C(Oc1cc(C(F)(F)F)nnc1-c1ccc(F)c(F)c1)c1cc2ccccc2o1 [Compound 1-120]
10: weed control effect, Amaranthus retroflexus (activity level) (Amaranthus retroflexus; Dose 3000 g/ha) | weed control effect, Veronica polita (activity level) (Veronica polita; Dose 3000 g/ha) | weed control effect, Chenopodiaceae (activity level) (Chenopodiaceae; Dose 3000 g/ha) | weed control effect, Rorippa indica (activity level) (Rorippa indica; Dose 3000 g/ha)

Cn1ncc(I)c1-c1nnc(C(F)(F)F)cc1O [Compound 807]
10: weed control effect (activity level), Amaranthus retroflexus (Amaranthus retroflexus; Dose 3000 g/ha) | weed control effect (activity level), Veronica polita (Veronica polita; Dose 3000 g/ha) | weed control effect (activity level), Chenopodiaceae (Chenopodiaceae; Dose 3000 g/ha) | weed control effect (activity level), Rorippa indica (Rorippa indica; Dose 3000 g/ha)

C/C(CC(C)C)=N/Oc1cc(C(F)(F)F)nnc1-c1cccc(C(F)(F)F)c1 [Compound 1-173]
10: weed control effect, Amaranthus retroflexus (activity level) (Amaranthus retroflexus; Dose 3000 g/ha) | weed control effect, Veronica polita (activity level) (Veronica polita; Dose 3000 g/ha) | weed control effect, Chenopodiaceae (activity level) (Chenopodiaceae; Dose 3000 g/ha) | weed control effect, Rorippa indica (activity level) (Rorippa indica; Dose 3000 g/ha)

Oc1cc(C(F)(F)F)nnc1-c1ccnn1-c1ccccc1 [Compound 832]
10: weed control effect (activity level), Amaranthus retroflexus (Amaranthus retroflexus; Dose 3000 g/ha) | weed control effect (activity level), Veronica polita (Veronica polita; Dose 3000 g/ha) | weed control effect (activity level), Chenopodiaceae (Chenopodiaceae; Dose 3000 g/ha) | weed control effect (activity level), Rorippa indica (Rorippa indica; Dose 3000 g/ha)
